Laboratory results published in ChEMBL document CHEMBL3797039, “Bcl-2/MDM2 Dual Inhibitors Based on Universal Pyramid-Like α-Helical Mimetics” (J Med Chem, 2016).
pKd, pKi: −log10 of the molar value. Active and inactive are the calls of the source. The calls are words filed in the database; no cut-off is given here.

Tests used:
[1] = Cell cycle arrest in human HCT116 p53+/+ cells assessed as accumulation at <G1 phase at 5 uM after 24 hrs by propidium iodide staining-based flow cytometric method (reference value: 0.3%); type: functional; conditions: HCT-116
[2] = target: T1, E3 ubiquitin-protein ligase Mdm2 (Homo sapiens, UniProt Q00987); experiment: Inhibition of MDM2-p53 interaction in human HCT116 p53+/+ cells assessed as upregulation of p53 expression at 5 to 10 uM after 12 hrs by immunoblotting method; type: cell-based; conditions: HCT-116
Target sequence in this assay (Q00987 whole entry, looked up): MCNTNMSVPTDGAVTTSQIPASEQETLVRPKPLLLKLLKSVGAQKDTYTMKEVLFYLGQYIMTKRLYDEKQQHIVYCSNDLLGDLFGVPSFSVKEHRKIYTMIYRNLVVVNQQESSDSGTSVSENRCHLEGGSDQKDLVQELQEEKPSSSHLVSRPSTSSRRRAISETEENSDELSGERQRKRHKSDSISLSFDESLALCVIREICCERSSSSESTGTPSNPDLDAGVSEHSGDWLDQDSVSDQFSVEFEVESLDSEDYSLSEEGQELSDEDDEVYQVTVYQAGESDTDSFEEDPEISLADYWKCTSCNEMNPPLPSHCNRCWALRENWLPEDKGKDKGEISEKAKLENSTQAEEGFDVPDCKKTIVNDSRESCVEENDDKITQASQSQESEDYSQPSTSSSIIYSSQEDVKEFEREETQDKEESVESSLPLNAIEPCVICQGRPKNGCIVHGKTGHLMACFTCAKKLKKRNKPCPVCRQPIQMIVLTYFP

[3] = target: T1, E3 ubiquitin-protein ligase Mdm2; experiment: Inhibition of MDM2-p53 interaction in human HCT116 p53+/+ cells assessed as upregulation of MDM2 expression at 5 to 10 uM after 12 hrs by immunoblotting method; type: cell-based; conditions: HCT-116
Target sequence in this assay (Q00987 whole entry, looked up): as above

[4] = target: T1, E3 ubiquitin-protein ligase Mdm2; experiment: Inhibition of MDM2-p53 interaction in human HCT116 p53+/+ cells assessed as upregulation of p21 expression at 5 to 10 uM after 12 hrs by immunoblotting method; type: cell-based; conditions: HCT-116
Target sequence in this assay (Q00987 whole entry, looked up): as above

[5] = Cell cycle arrest in human HCT116 p53-/- cells assessed as accumulation at G1 phase at 10 uM after 24 hrs by propidium iodide staining-based flow cytometric method (reference value: 28%); type: functional; conditions: HCT-116
[6] = Cell cycle arrest in human HCT116 p53-/- cells assessed as accumulation at <G1 phase at 10 uM after 24 hrs by propidium iodide staining-based flow cytometric method (reference value: 0.6%); type: functional; conditions: HCT-116
[7] = Cell cycle arrest in human HCT116 p53+/+ cells assessed as accumulation at G2/M phase at 5 uM after 24 hrs by propidium iodide staining-based flow cytometric method (reference value: 26%); type: functional; conditions: HCT-116
[8] = Cell cycle arrest in human HCT116 p53+/+ cells assessed as accumulation at S phase at 5 uM after 24 hrs by propidium iodide staining-based flow cytometric method (reference value: 42%); type: functional; conditions: HCT-116
[9] = Cell cycle arrest in human HCT116 p53+/+ cells assessed as accumulation at G1 phase at 5 uM after 24 hrs by propidium iodide staining-based flow cytometric method (reference value: 31%); type: functional; conditions: HCT-116
[10] = Cell cycle arrest in human HCT116 p53-/- cells assessed as accumulation at S phase at 10 uM after 24 hrs by propidium iodide staining-based flow cytometric method (reference value: 36%); type: functional; conditions: HCT-116
[11] = Cell cycle arrest in human HCT116 p53-/- cells assessed as accumulation at G2/M phase at 10 uM after 24 hrs by propidium iodide staining-based flow cytometric method (reference value: […]%); type: functional; conditions: HCT-116
[12] = tested on: HCT-116; experiment: Induction of apoptosis in human HCT116 p53+/+ cells after 48 hrs by Annexin V-FITC staining-based flow cytometric method; type: functional, cell-based
[13] = target: T2, Apoptosis regulator Bcl-2 (Homo sapiens, UniProt P10415); experiment: Inhibition of BCl-2/Bim interaction in human DMS53 cells harboring p53 mutant at 5 to 10 uM after 12 hrs by immunoprecipitation method; type: cell-based; conditions: DMS-53
[14] = target: T2, Apoptosis regulator Bcl-2; experiment: Inhibition of BCl-2/Bax interaction in human DMS53 cells harboring p53 mutant at 5 to 10 uM after 12 hrs by immunoprecipitation method; type: cell-based; conditions: DMS-53
[15] = tested on: DMS-53; experiment: Induction of apoptosis in human DMS53 cells harboring p53 mutant assessed as caspase-3 cleavage at 5 to 10 uM after 12 hrs by immunoblotting method; type: functional, cell-based
[16] = tested on: DMS-53; experiment: Induction of apoptosis in human DMS53 cells harboring p53 mutant assessed as cytochrome c release at 5 to 10 uM after 12 hrs by immunoblotting method; type: functional, cell-based
[17] = tested on: DMS-53; experiment: Induction of apoptosis in human DMS53 cells harboring p53 mutant assessed as PARP cleavage at 5 to 10 uM after 12 hrs by immunoblotting method; type: functional, cell-based
[18] = target: T3, Induced myeloid leukemia cell differentiation protein Mcl-1 (Homo sapiens, UniProt Q07820); experiment: Displacement of FAM-Bid peptide from N-terminal 8x His-tagged MCl-1 (unknown origin) expressed in Escherichia coli BL21 (DE3) after 30 mins by fluorescence polarization assay
[19] = target: T2, Apoptosis regulator Bcl-2; experiment: Displacement of FAM-Bid peptide from N-terminal 8x His-tagged Bcl-2 (unknown origin) expressed in Escherichia coli BL21 (DE3) after 30 mins by fluorescence polarization assay
[20] = target: T1, E3 ubiquitin-protein ligase Mdm2; experiment: Displacement of FAM-p53TAD peptide from N-terminal 8x His-tagged human MDM2 (25 to 108 residues) expressed in Escherichia coli BL21 (DE3) after 30 mins by fluorescence polarization assay
Target sequence in this assay (Q00987 whole entry): as the sequence (Q00987 whole entry, looked up) above

[21] = target: T1, E3 ubiquitin-protein ligase Mdm2; experiment: Binding affinity to N-terminal 8x His-tagged human MDM2 (25 to 108 residues) expressed in Escherichia coli BL21 (DE3) by isothermal titration microcalorimetric method
Target sequence in this assay (Q00987 whole entry): as the sequence (Q00987 whole entry, looked up) above

[22] = target: T2, Apoptosis regulator Bcl-2; experiment: Binding affinity to N-terminal 8x His-tagged Bcl-2 (unknown origin) expressed in Escherichia coli BL21 (DE3) by isothermal titration microcalorimetric method
[23] = target: T3, Induced myeloid leukemia cell differentiation protein Mcl-1; experiment: Binding affinity to N-terminal 8x His-tagged MCl-1 (unknown origin) expressed in Escherichia coli BL21 (DE3) by isothermal titration microcalorimetric method
[24] = tested on: HCT-116; experiment: Effect on MDM2 expression in human HCT116 p53-/- cells at 10 to 20 uM after 12 hrs by immunoblotting method; type: functional, cell-based
[25] = tested on: HCT-116; experiment: Effect on p53 expression in human HCT116 p53-/- cells at 10 to 20 uM after 12 hrs by immunoblotting method; type: functional, cell-based
[26] = tested on: HCT-116; experiment: Effect on p21 expression in human HCT116 p53-/- cells at 10 to 20 uM after 12 hrs by immunoblotting method; type: functional, cell-based
[27] = Upregulation of p53 mRNA expression in human HCT116 p53+/+ cells at 10 uM after 12 hrs by qPCR method; type: functional, cell-based; conditions: HCT-116
[28] = target: T3, Induced myeloid leukemia cell differentiation protein Mcl-1; experiment: Inhibition of Mcl-1/Bim interaction in human DMS53 cells harboring p53 mutant at 5 to 10 uM after 12 hrs by immunoprecipitation method; type: cell-based; conditions: DMS-53
[29] = target: T3, Induced myeloid leukemia cell differentiation protein Mcl-1; experiment: Inhibition of Mcl-1/Bax interaction in human DMS53 cells harboring p53 mutant at 5 to 10 uM after 12 hrs by immunoprecipitation method; type: cell-based; conditions: DMS-53
[30] = target: T2, Apoptosis regulator Bcl-2; experiment: Binding affinity to 15N-labeled Bcl-2 (unknown origin) by 2D 1H-15N HSQC NMR spectroscopic method

T3 sequence (Q07820 whole entry): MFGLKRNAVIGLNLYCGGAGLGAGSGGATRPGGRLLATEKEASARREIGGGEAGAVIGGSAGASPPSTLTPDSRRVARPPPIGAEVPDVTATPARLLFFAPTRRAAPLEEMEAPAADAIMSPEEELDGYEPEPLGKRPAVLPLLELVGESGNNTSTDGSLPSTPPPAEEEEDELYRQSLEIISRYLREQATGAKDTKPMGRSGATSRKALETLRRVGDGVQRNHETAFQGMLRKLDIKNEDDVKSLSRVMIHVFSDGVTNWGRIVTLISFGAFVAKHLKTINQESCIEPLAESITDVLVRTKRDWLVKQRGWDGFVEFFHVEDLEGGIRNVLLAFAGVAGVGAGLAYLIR
T2 sequence (P10415 whole entry): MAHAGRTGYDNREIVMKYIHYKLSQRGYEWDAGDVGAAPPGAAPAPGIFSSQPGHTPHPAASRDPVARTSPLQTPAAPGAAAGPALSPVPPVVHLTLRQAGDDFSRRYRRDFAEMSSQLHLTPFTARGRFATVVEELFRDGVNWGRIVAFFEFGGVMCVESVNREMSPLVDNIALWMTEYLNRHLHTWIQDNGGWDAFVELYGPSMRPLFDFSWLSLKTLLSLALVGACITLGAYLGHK

SMILES | pKi [18] | pKi [19] | pKi [20] | further results
CN(C)CC[C@H](CSc1ccccc1)Nc1ccc(S(=O)(=O)NC(=O)c2ccc(N3CCN(Cc4ccccc4-c4ccc(Cl)cc4)CC3)cc2)cc1[N+](=O)[O-] | – | – | – | Activity [1]: 7.1%; inhibition [2]: inactive; inhibition [3]: inactive; inhibition [4]: inactive; Activity [5]: 26%; Activity [6]: 6.4%; Activity [7]: 24%; Activity [8]: 40%; Activity [9]: 28%; Activity [10]: 32%; Activity [11]: 34%; Activity [12]: Active; inhibition [13]: Active; inhibition [14]: Active; Activity [15]: Active; Activity [16]: Active; Activity [17]: Active
Cc1cc2c(C(C)C)c(O)c(O)c(C=O)c2c(O)c1-c1c(C)cc2c(C(C)C)c(O)c(O)c(C=O)c2c1O [GOSSYPOL] | 6.59 | – | < 4.60 | –
CC(C)Oc1ccc(-c2cc(C(=O)O)nn2-c2ccccc2)cc1 | 5.44 | 5.15 | 5.64 | –
CCOc1ccc(-c2c(NC(=O)c3ccccc3)c(C(=O)O)nn2-c2ccc(Oc3ccccc3)cc2)cc1 | 6.20 | 6.07 | 5.95 | –
CC(C)COc1ccc(-c2cc(C(=O)O)nn2-c2ccccc2)cc1 | 5.09 | < 5.00 | 5.13 | –
O=C(O)c1cc(-c2ccc(OCc3ccccc3)cc2)n(-c2ccccc2)n1 | < 5.00 | < 5.00 | 4.70 | –
CCOc1ccc(-c2c(NC(=O)c3ccc(OC(C)C)cc3)c(C(=O)O)nn2-c2ccc(Oc3ccccc3)cc2)cc1 | 7.09 | 7.55 | 6.52 | –
CC(C)COc1ccc(C(=O)Nc2c(C(=O)O)nn(-c3ccc(Oc4ccccc4)cc3)c2-c2ccc(OC(C)C)cc2)cc1 | 6.14 | 5.85 | 6.37 | –
CC(C)Oc1ccc(-c2cc(C(=O)O)nn2-c2ccc(C(C)C)cc2)cc1 | 5.62 | 5.28 | 5.67 | –
CCOc1ccc(-c2c(NC(=O)c3ccc(OCC(C)C)cc3)c(C(=O)O)nn2-c2ccc(Oc3ccccc3)cc2)cc1 | 6.41 | 5.98 | 6.35 | –
CC(C)Oc1ccc(C(=O)Nc2c(C(=O)O)nn(-c3ccc(C(C)C)cc3)c2-c2ccc(OCc3ccccc3)cc2)cc1 | 5.59 | < 5.00 | 5.66 | –
CCOc1ccc(-c2cc(C(=O)O)nn2-c2ccccc2)cc1 | 5.42 | 5.22 | 5.49 | –
Cc1ccc(/N=c2\c3ccc(C)cc3n(C(=O)c3ccc(C(C)(C)C)cc3)c3c(O)c(O)c(O)cc23)cc1 | 6.61 | 6.68 | 4.61 | –
CCOc1ccc(-c2cc(C(=O)O)nn2-c2ccc(Oc3ccccc3)cc2)cc1 | 6.35 | 6.16 | 5.99 | –
CC(C)c1ccc2/c(=N\c3ccc(Oc4ccccc4)cc3)c3cc(O)c(O)c(O)c3n(C(=O)c3ccc(C(C)(C)C)cc3)c2c1 | 7.10 | 7.25 | < 4.60 | –
COc1ccc(C2=N[C@@H](c3ccc(Cl)cc3)[C@@H](c3ccc(Cl)cc3)N2C(=O)N2CCNC(=O)C2)c(OC(C)C)c1 [NUTLIN-3] | < 5.00 | < 5.00 | – | Activity [1]: 0.9%; Activity [5]: 29%; Activity [6]: 0.8%; Activity [7]: 49%; Activity [8]: 8%; Activity [9]: 41%; Activity [10]: 35%; Activity [11]: 34%; inhibition [13]: inactive; inhibition [14]: inactive; inhibition [28]: inactive; inhibition [29]: inactive; pKd [30]: 4.82

Continued, in another order:

pKi [18] | pKi [19] | pKi [20] | SMILES | further results
6.43 | 6.03 | 6.15 | CC(C)Oc1ccc(-c2cc(C(=O)O)nn2-c2ccc(Oc3ccccc3)cc2)cc1 | –
< 5.00 | < 5.00 | 5.35 | CC(C)Oc1ccc(C(=O)Nc2c(C(=O)O)nn(-c3ccc(Oc4ccccc4)cc3)c2-c2ccc(OCc3ccccc3)cc2)cc1 | –
6.79 | 6.85 | 6.97 | CC(C)Oc1ccc(C(=O)Nc2c(C(=O)O)nn(-c3ccc(Oc4ccccc4)cc3)c2-c2ccc(OC(C)C)cc2)cc1 | pKd [21]: 6.33; pKd [22]: 6.54; pKd [23]: 6.58; Activity [1]: 6.8%; Activity [24]: inactive; Activity [25]: inactive; Activity [26]: inactive; Activity [27]: inactive; Activity [5]: 30%; Activity [6]: 5.2%; Activity [7]: 47%; Activity [8]: 6%; Activity [9]: 40%; Activity [10]: 33%; Activity [11]: 31%; Activity [15]: Active; Activity [16]: Active; Activity [17]: Active
6.39 | 6.39 | 6.16 | CCOc1ccc(-c2c(NC(=O)c3ccc(C(C)(C)C)cc3)c(C(=O)O)nn2-c2ccc(Oc3ccccc3)cc2)cc1 | –
< 5.00 | < 5.00 | < 4.60 | O=C(O)c1cc(-c2ccccc2)n(-c2ccccc2)n1 | –
6.65 | 6.41 | 6.21 | CC(C)c1ccc(-n2nc(C(=O)O)cc2-c2ccc(OCc3ccccc3)cc2)cc1 | –
5.34 | 5.29 | 5.37 | COC(=O)c1nn(-c2ccc(Oc3ccccc3)cc2)c(-c2ccc(OC(C)C)cc2)c1NC(=O)c1ccc(OC(C)C)cc1 | –
